The values that follow come from patent US20070225253A1, “Use of a trioxopyrimidine for the treatment and prevention of bronchial inflammatory diseases” (priority 2004, published 2007).

A short description of data set [1]: Pharmacokinetics after intravenous administration to sheep. The format is in vivo. The settings on record: I.V. solution, 5 mg/kg. As to the method: The Compound I/HP-β-CD intravenous solution was obtained by dissolving CompoundI (10 mg/ml) in a solution containing HP-β-CD (200 mM), L-lysine (20 mM) and water for injection. The osmolality (about 325 mOsmol/kg) and the pH (about 8.2) values of this solution are compatible with an intravenous injection. The solution was sterilized by passing through a sterile 0.20 μm cellulose acetate filter under aseptic conditions.
Six healthy sheep (2 males and 4 females) ranging from 45 to 82 kg of body weight were used as experimental animals. During the test, the animals were fed and watered ad libitum.
The experimental study, which was realized following the scheme of Table 3, included a randomized two-way cross-over design for oral administration followed by an intravenous administration. A wash-out period of 3 weeks was allowed between each administration.
For the intravenous dosage form, all six sheep received 5 mg of Compound I/kg of body weight. The solution was administered through the left jugular vein and blood samples were taken from the right jugular vein before and 5, 10, 15, 20, 30, 45 min, 1, 1.5, 2, 3, 4, 5, 6, 8, 10, 12, 24, 28, 32, 48, 72, 96, 120, 144, 168 h after starting the intravenous administration.
All blood samples were centrifuged and the serum were stored at −80° C. until assayed.
A fully automated method was developed for the LC determination of this compound in serum. Sample clean-up was performed by on-line coupling of a pre-column packed with restricted access material (RAM), namely LiChrospher RP-8ADS (alkyl diol silica), to the analytical column by means of the column-switching technique. The ADS sorbents belong to the group of internal surface reversed-phase supports and have been applied successfully for the clean-up of biological samples prior to LC analysis (Yu, Z., and Westerlund, D., Chromatographia 44 (1997) 589-594; Hubert, Ph., et al., S. T. P. Pharma Pratiques 9 (1999) 160-180; Souverain, S., et al., Journal of Chromatography B 801 (2004) 141-156). The operating conditions are described in a previous paper (Chiap, P., et al., Journal of Chromatography B 817 (2005), 109-117). The method was fully validated according to a novel approach based on accuracy profiles taking into account the total measurement error (Hubert, P., et al., Analytica Chimica Acta 391 (1999) 135-148; Hubert, Ph., et al., S. T. P. Pharma Pratiques 13 (2003) 27-64; Hubert, Ph., et al., J Pharm Biomed. Anal. 36 (2004) 579-586.
For the bioanalytical study, the dosing range of the method had to be increased until 50 μg/ml due to high concentrations to be determined. A partial revalidation was performed and good results were obtained with respect to response function, trueness, precision, accuracy and linearity.
For the intravenous administration study, the pharmacokinetic parameters were determined for each animal using a linear two-compartment model with first-order distribution and elimination (Boroujerdi, M., Pharmacokinetics, Principles and Applications. McGrow-Hill Companies, USA, 2002). The areas under the curve values (AUCs0-168) were calculated by linear trapezoidal rule during the sampling period. The AUC extrapolated until infinite values (AUCs0-∞), the total body clearance values (Clt), the biologic half-life (T1/2β) and the overall volume of distribution (Vdt) were calculated using conventional equations associated with compartmental analysis (Boroujerdi, M., Pharmacokinetics, Principles and Applications, McGrow-Hill Companies, USA, 2002).

Data set [2] can be described thus: Phase solubility study of Compound I with HP-β-CD and L-lysine. The format is physicochemical. The settings on record: for solubility at 7 days: 25 °C, thermodynamic from solid. The protocol: Solubility studies were performed as described by Higuchi, T., and Connors, K. A., Advances in Analytical Chemistry and Instrumentation 4 (1965) 117-212. Excess amounts of Compound I were added to increasing concentrations of HP-β-CD (0-200 mM) in 5 ml dissolution media, either purified water or L-lysine solutions (50 mM or 500 mM). The glass containers were sealed and the suspensions were shaken in a water-bath at 25° C. until complexation equilibrium was reached (7 days). An aliquot was filtered through a 0.45 μm PVDF membrane filter and assayed for Compound I content by a validated liquid chromatography (LC) method.

In brackets after ≈: the same amount, converted by molar mass. Several values for one entry are separate records, joined by “and”; a condition that tells them apart may be missing. Identical values can stand only once. Like-named read-outs stand apart in the source and are kept apart here.

Take `O=C1NC(=O)C(c2ccc(-c3ccccc3)cc2)(N2CCN(c3ccc([N+](=O)[O-])cc3)CC2)C(=O)N1` [Compound I, 5-Biphenyl-4-yl-5-[4-(4-nitro-phenyl)-piperazin-1-yl]pyrimidine-2,4,6-trione]: the distribution phase entry in data set [1] (sheep) is listed as “about 30 minutes”. The compound also had an AUC(0-inf) in data set [1] (both sexes, serum, iv, sheep n = 6, mean ± S.D.) of 859 ± 212 µg·h/mL. For the same compound, in data set [1] (both sexes, serum, iv, sheep n = 6, mean ± S.D., read-out: AUC0-168 h), the AUC(0-t) turned out to be 858 ± 212 µg·h/mL. Also, the clearance in data set [1] (both sexes, sheep, serum, iv, sheep n = 6, mean ± S.D., read-out: Clt (total body clearance) (converted)) was approximately 5.97 mL/min. The half-life in data set [1] (both sexes, sheep, serum, iv, sheep n = 6, mean ± S.D., read-out: T1/2β (biologic half-life) (converted)) was approximately 15.5 h. Further, the Vd in data set [1] (both sexes, sheep, serum, iv, sheep n = 6, mean ± S.D., read-out: Vdt (overall volume of distribution)) is approximately 8 L. The solubility at 7 days is 17100 µg/mL (≈ 35.2 mM) in data set [2] (50 mM L-lysine solution with 200 mM HP-β-CD, aqueous with cosolvent or surfactant or cyclodextrin, L-lysine 50 mM, 25° C., read-out: Solubility with HP-β-CD (200 mM)); 50 µg/mL (≈ 0.103 mM) in data set [2] (50 mM L-lysine solution, no cyclodextrin, aqueous buffer, L-lysine 50 mM, 25° C., read-out: Solubility without CD); 5530 µg/mL (≈ 11.4 mM) in data set [2] (200 mM HP-β-CD in purified water, aqueous with cosolvent or surfactant or cyclodextrin, purified water, 25° C., read-out: Solubility with HP-β-CD (200 mM)); ~5500 µg/mL and ~11000 µM in data set [2] (200 mM HP-β-CD in purified water, no L-lysine, aqueous with cosolvent or surfactant or cyclodextrin, solubility in a 200 mM HP-β-CD solution, absence of L-lysine); 38100 µg/mL (≈ 78.6 mM) in data set [2] (500 mM L-lysine solution with 200 mM HP-β-CD, aqueous with cosolvent or surfactant or cyclodextrin, 500 mM L-lysine and 200 mM HP-β-CD, read-out: solubility); 38100 µg/mL (≈ 78.6 mM) in data set [2] (500 mM L-lysine solution with 200 mM HP-β-CD, aqueous with cosolvent or surfactant or cyclodextrin, L-lysine 500 mM, 25° C., read-out: Solubility with HP-β-CD (200 mM)). Besides, the solubility at 7 days in data set [2] (500 mM L-lysine solution, no cyclodextrin, aqueous buffer, L-lysine 500 mM, 25° C., read-out: Solubility without CD) came out at 90 µg/mL (≈ 0.185 mM); in data set [2] (500 mM L-lysine solution, no cyclodextrin, aqueous buffer, L-lysine (500 mM) separately, no CD, read-out: solubility) it was 90 µg/mL (≈ 0.185 mM); in data set [2] (purified water, no cyclodextrin, water, purified water, 25° C., read-out: Solubility without CD) it was 0.56 µg/mL (≈ 0.00115 mM). Besides, the “increase of aqueous solubility” value is “approximately 10,000 fold” in data set [2] (200 mM HP-β-CD, no L-lysine, vs purified water); 70,000 fold in data set [2] (500 mM of L-lysine and 200 mM of HP-β-CD).
